Reference: the COVID Moonshot data (paper PMC11187573), “Identification of SARS-CoV-2 Mpro inhibitors through deep reinforcement learning for de novo drug design and computational chemistry approaches” (RSC Medicinal Chemistry, 2024)

The compounds below were run against SARS-CoV-2 Main Protease (SARS-CoV-2) (UniProt P0DTD1). Conditions: not given.
`O=C(c1cc(=O)[nH]c2ccccc12)N1CCN(c2cccc(C(F)(F)F)c2)CC1` gave an IC50 of 5.65 µM.
`Cc1ccncc1NC(=O)Cc1cc(Cl)cc(NC2CC2C(F)(F)F)c1` (stereo not drawn) showed an IC50 of 19.7 µM.
Compound `CCCCN1C(=O)C(=O)c2cc(Br)cc(C)c21` has an IC50 of 57.6 µM.
`Cc1c(N)cncc1NC(=O)Cc1cccc(Cl)c1` gave an IC50 of 8.2 µM.
`Cc1ccncc1NC(=O)Cc1cc(Cl)cc(C2COC2)c1` showed an IC50 of 56.9 µM.
In the case of `COc1cccc(C2=N/C(=C/c3sccc3C)C(=O)O2)c1`, the IC50 is reported as 5.07 µM.
`C[C@@H]1C[C@H](C(=O)Nc2cncc3ccccc23)c2cc(Cl)ccc2O1` (stereo in doubt) gave an IC50 of 2.66 µM.
In the case of `O=C(Nc1cccnc1)[C@@H](c1ccccc1)N1Cc2ccccc2C1=O` (stereo in doubt), the IC50 is reported as 59.6 µM.
`O=C(Cn1nnc2ccccc21)Nc1cccc(Cl)c1` gave an IC50 of 29.4 µM.
For `O=C(Nn1nnc2ccccc21)C(Cc1cccc(Cl)c1)c1ccc(N2CCCCC2=O)cc1` (stereo not drawn), the IC50 was 81.8 µM.
`Cc1cc(C(F)(F)F)nc2c1c(N)nn2C(=O)C1CCOc2ccc(Cl)cc21` (stereo not drawn) gave an IC50 of 57.8 µM.
`Cc1ccncc1NC(=O)Cc1cc(Cl)cc(-c2cnn(C)c2C(F)F)c1` was tested, and the IC50 was 16 µM.
`N#Cc1ccccc1NC(=O)[C@@H](c1ccccc1)N1Cc2ccccc2C1=O` (stereo in doubt) gave an IC50 of 57.9 µM.
`O=C1C(=O)N(Cc2ccccc2)c2ccc([N+](=O)[O-])cc21` was tested, and the IC50 was 26.9 µM.
For `Cc1ccncc1NC(=O)Cc1cc(Cl)cc(-c2ccc(C)c(F)c2F)c1`, the IC50 was 56.2 µM.
`C=CC(=O)N(c1ccc(I)cc1)C(C(=O)Nc1ccc(Cl)cc1)c1cncnc1` (stereo not drawn) showed an IC50 of 2.75 µM.
Compound `C[C@@H]1C[C@@H](C(=O)Nc2cncc3ccccc23)c2cc(Cl)ccc2O1` (stereo in doubt) has an IC50 of 0.524 µM.
`O=C(Cc1cccc(Cl)c1)Nc1cncc2c1CCCC2` gave an IC50 of 1.84 µM.
For `O=C(Cc1cccc(Cl)c1)Nc1n[nH]c2ccc(F)cc12`, the IC50 was 88.6 µM.
`CN(C)c1ccc(N(Cc2ccn[nH]2)C(=O)Cn2nnc3ccccc32)cc1` showed an IC50 of 90.8 µM.
`Cc1ccc(N(Cc2cccc(Cl)c2)C(=O)Cn2nnc3ccccc32)cc1` gave an IC50 of 3.3 µM.
With `CCCCOc1ccc(Cl)cc1CC(=O)Nc1cnccc1C` the IC50 was 15.7 µM.
For `O=C(Nc1cncc2ccccc12)[C@H]1COc2ccc(Cl)cc2C1` (stereo in doubt), the IC50 was 37.7 µM.
Work on `CN(C)c1ccc(N(Cc2cccc(Cl)c2)C(=O)Cn2nnc3ccccc32)cc1` yielded an IC50 of 0.391 µM.
Compound `Cc1ccncc1NC(=O)Cc1cc(Cl)cc(-c2ccc(C3(C)CCO3)cc2)c1` (stereo not drawn) has an IC50 of 15.3 µM.

Same assay, conditions: 20.0 µM
In the case of `CC(=O)N1CCN(Cc2ccsc2)CC1`, the inhibition is reported as 98.5%.

Same assay, conditions: 50.0 µM
Compound `O=C(c1cc(=O)[nH]c2ccccc12)N1CCN(c2cccc(C(F)(F)F)c2)CC1` has an inhibition of 71%.
`COc1cccc(C2=N/C(=C/c3sccc3C)C(=O)O2)c1` gave an inhibition of 77.6%.
Work on `Cc1cc(O)c2c3c(ccc2c1)C(=O)c1c(O)cccc1C3=O` yielded an inhibition of 5%.
In the case of `CC(C)[C@H](NC(=O)OCc1ccccc1)C(=O)NC(C=O)Cc1ccccc1` (stereo in doubt), the inhibition is reported as 0%.
For `O=C(Cn1nnc2ccccc21)Nc1cccc(Cl)c1`, the inhibition was 55.1%.
Work on `C=C1CCC[C@H]2[C@](C)(CC3=C(O)C(=O)C=C(OC)C3=O)[C@@H](C)CC[C@]12C` (stereo in doubt) yielded an inhibition of 2.35%.
`CS(=O)(=O)Nc1cccc(C2=NN(C(=O)CCl)C(c3ccccc3)C2)c1` (stereo not drawn) showed an inhibition of 57.6%.
`Cc1ccncc1NC(=O)Cc1cc(Cl)cc(NS(C)(=O)=O)c1` was tested, and the inhibition was 54.6%.
Work on `Cc1oncc1C(=O)Nc1ccc(S(F)(F)(F)(F)F)cc1` yielded an inhibition of 0%.
`CC(C)(O)CC1C2=C(Oc3c1c1c(c4ccccc34)OC(C)(C)C=C1)C(=O)c1ccccc1C2=O` (stereo not drawn) gave an inhibition of 3.92%.
Work on `C[N+]1=C2C=C(N/C=C/c3ccc(O)cc3)C(=O)c3[nH]cc(c32)CC1` yielded an inhibition of 8.91%.
`COc1cc2c(c3ccccc13)OC(C)(C)CC2Oc1cc2c(cc1C)C(=O)c1ccccc1C2=O` (stereo not drawn) gave an inhibition of 4%.
In the case of `O=C(c1cc(=O)[nH]c2ccccc12)N1CCN(Cc2cccc(Cl)c2)CC1`, the inhibition is reported as 50.9%.
`CC(C)C1=C(O)C(=O)C2=C(CC[C@H]3C(C)(C)CCC[C@]23C)C1=O` (stereo in doubt) showed an inhibition of 10.2%.
In the case of `CC[P](CC)(CC)=[Au][S][C@@H]1O[C@H](COC(C)=O)[C@@H](OC(C)=O)[C@H](OC(C)=O)[C@H]1OC(C)=O` (stereo in doubt), the inhibition is reported as 100%.
`CC(=O)N1CCN(Cc2ccsc2)CC1` gave an inhibition of 97.4%.
Compound `COc1ccc2c(=O)cc(-c3ccc(OCc4ccccc4)cc3)oc2c1` has an inhibition of 10.7%.
